Measurements: patent US10238657B2, “Heterocyclic compounds for treating psoriasis” (JS INNOPHARM (SHANGHAI LTD.), priority 2015, dated 2019)
Converted amounts (≈) assume the structure as drawn.

How the values were obtained:
HaCaT cells [1] = experiment: In-vitro screening with MTT method, inhibition of proliferation of HaCaT cells; format: cell-based, human; details: about 48 hours incubation
Method: Compound No. 5 was dissolved in DMSO, and gradiently diluted with PBS to prepare solutions at concentration of 1000 μg/ml, 100 μg/ml, 10 μg/ml, 1 μg/ml, 0.1 μg/ml, and 0.01 μg/ml, respectively. Cis-platinum (CDDP) was used as positive control, and sample solutions were prepared with the same method. The sample solutions were added into a 96-well plate placed with the growth phase human immortalized keratinocyte (HaCaT) cells (Pharmacology Laboratory of Shanghai Institute of Pharmaceutical Industry), and were incubated for about 48 hours. The cell relative survival rate was determined by the MTT method, and calculated according to the following formula based on the light absorption value at […]. Cell relative survival rate=(Light absorption value of sample treatment group—background light absorption value)/(Light absorption value of DMSO treatment group—background light absorption value).

guinea pig ear epidermis = experiment: Propranolole hydrochloride-induced psoriasis in guinea pig model; format: in vivo; details: 200 μl on both ears twice daily, 7 days
Method: Except for those in Saline control group, guinea pigs were treated with propranolole hydrochloride cream (5% w/w, 200 μl) uniformly applied on the back of both ears twice daily for four successive weeks. After four weeks, the […] were divided into several groups, namely, blank cream group, calcipotriol group, and four testing cream groups with Compound 5 at concentration of 0.5%, 1%, 2%, and 4% (w/w)), respectively. The guinea pigs in Saline control group were treated with saline on the back of both ears; the guinea pigs in other groups were treated with corresponding cream on the back of both ears (200 μl) twice daily for 7 successive days. The guinea pigs were examined during the experiment period and sacrificed 1 hour after the last dosing.

[2] = test system: mouse vaginal epidermal cells; experiment: Effect on mitosis of mouse vaginal epidermal cells; format: in vivo; details: 25 μl intravaginal once daily, 3 days, estradiol-treated mice, n = 6
Method: Except for the saline control group, sexually mature female mice were injected with estradiol subcutaneously at a dosage of 35 mg/kg for 3 successive days. On the fourth day, in-estrus mice were selected with vaginal smear. The mice were randomly divided into several groups: (a) saline control group, saline was used in each administration; (b) blank cream group, blank cream was used in each administration; (c) calcipotriol control group, calcipotriol in cream (5% w/w) was used in each administration; (d) four testing groups, Compound No 5 in cream at concentration of 0.5%, 1%, 2%, and 4% (w/w), respectively, was used in each application. 25 μl corresponding treatment was injected into the vagina of the mice once daily for 3 successive days. Colchicine (15 mg/Kg) was intraperitoneally injected 2 hours after the last dosing. The mice were sacrificed 6 hours after the injection of colchicine. The vaginal tissue was taken out for pathological examination. The number of mitosis in one hundred basal cells was counted, which was named as the mitotic index.

mouse tail epidermis = experiment: Effect on mouse tail epidermis (granular layer of tail scales); format: in vivo; details: 100 μl once daily, 7 days, female mice, n = 10
Method: 70 female mice were randomly divided into several groups: (a) saline control group, saline was used in each administration; (b) blank cream group, blank cream was used in each administration; (c) calcipotriol control group, calcipotriol in cream (5% w/w) was used in each administration; (d) four testing groups, Compound No 5 in cream at 0.5%, 1%, 2%, and 4% (w/w), respectively, was used in each administration. 100 μl of corresponding treatment was applied to the same position on the tail of the mice once daily for seven successive days. The mice were sacrificed 1 hour after the last application. The treated skin parts were taken for pathological examination, and the tail scales of each mouse was assessed under a microscope. The number of scales having a granular layer in every 100 scales was counted, and the result was expressed as percentage.

HaCaT cells [3] = experiment: Morphological examination of the effect on HaCaT cell differentiation; format: cell-based, human
Method: HaCaT cells were cultured in DMEM culture medium containing 10% FBS under 37° C. and 5% CO2 concentration. When reaching 80% of the culture bottle area and after digestion by 0.25% trypsin, the cells were adjusted to a concentration of 4×10^4/ml and moved to a 6-well plate respectively (containing sterilized slide). Compound solutions were added. The cells were applied to the corresponding wells, and a blank control group (saline) was set. Both the sample groups and the control group were placed in a cell incubator at 37° C. Immumohistochemical staining was conducted after incubation at 48 h.
The imagine in FIG. 1A is dark brown, indicating large amount of keratin is present. […] Compound No. 5 underwent cornification (positive result).

[4] = test system: chick chorioallantoic membrane; experiment: Chick chorioallantoic membrane (CAM) angiogenesis model; format: in vivo, chicken; details: 100 μg/egg
Method: Fresh eggs were incubated for 6 successive days under 37° C. and 50% humidity. On the 6th day, live eggs were identified and taken out for window-opening. First, the chorioallantoic membrane was located with illumination. Droplets of Compound No. […] After air dry, the filter paper was placed on the chorioallantoic membrane gently without contacting big vessels. The window was sealed with a transparent adhesive tape. The eggs were incubated for 48 hours continuously. The transparent adhesive tape was then uncovered. The window was enlarged and photos were taken under a dissecting microscope (FIGS. 2 A-B). New vessels were counted based on the number of blood vessel branch points in each photo. Inhibitory rate=100−[(number of new blood vessels in treatment group at 24 h)/(number of new blood vessels in treatment group at 0 h)]/[(number of blood vessels in negative control group at 24 h)/(number of blood vessels in negative control group at 0 h)]×100%.

SMILES: N.N.[Cl][Pt][Cl] [CDDP, Cis-platinum, reference compound]
- HaCaT Cells IC50 (HaCaT cells [1]): 1.41 µg/mL

SMILES: C=C1/C(=C\C=C2/CCC[C@]3(C)[C@@H]([C@H](C)/C=C/[C@@H](O)C4CC4)CC[C@@H]23)C[C@@H](O)C[C@@H]1O [Calcipotriol, calcipotriol, reference compound]
- Epidermal thickness (μm) (guinea pig ear epidermis; cream 5% w/w): 158.72 ± 2.93 μm
- Mitotic cell number/total cell number (%) ([2]; cream 5% w/w): 15.33 ± 1.21 %
- Scales quantity in granular layer * 100% (mouse tail epidermis; cream 5% (w/w)): 50.50 ± 4.95 %

SMILES: Cc1cnc(Nc2ccc(F)cc2Cl)nc1-c1cc2n(c1)CCN([C@H](CO)c1cccc(Cl)c1)C2=O [Compound 5, (S)-7-(2-((2-chloro-4-fluorophenyl)amino)-5-methylpyrimidin-4-yl)-2-(1-(3-chlorophenyl)-2-hydroxyethyl)-3,4-dihydropyrrolo[1,2-a]pyrazin-1(2H)-one]
- Differentiation of HaCaT cells (keratin, cornification) (HaCaT cells [3]; 100 μg/ml, 48 h, inverted microscope x200, FIG. 1A): induced differentiation of HaCaT cells
- Test Results, effect on HaCat cell differentiation (HaCaT cells [3]; 48 h incubation, immunohistochemical staining): Positive
- Epidermal thickness (μm) (guinea pig ear epidermis; cream 0.5% w/w): 190.31 ± 17.89 μm
- Epidermal thickness (μm) (guinea pig ear epidermis; cream 1% w/w): 180.74 ± 11.05 μm
- Epidermal thickness (μm) (guinea pig ear epidermis; cream 2% w/w): 156.59 ± 13.25 μm
- Epidermal thickness (μm) (guinea pig ear epidermis; cream 4% w/w): 128.96 ± 13.61 μm
- IC50 (HaCaT cells [1]; Homo sapiens, HaCaT): 544 µg/mL (≈ 1030 µM)
- Mitotic cell number/total cell number (%) ([2]; cream 0.5% (w/w)): 18.33 ± 1.86 %
- Mitotic cell number/total cell number (%) ([2]; cream 1% (w/w)): 15.00 ± 3.35 %
- Mitotic cell number/total cell number (%) ([2]; cream 2% (w/w)): 14.83 ± 2.48 %
- Mitotic cell number/total cell number (%) ([2]; cream 4% (w/w)): 14.50 ± 3.62 %
- Number of new blood vessels 0 h ([4]; 0 h, n = 3): 18.83 ± 5.60
- Number of new blood vessels 48 h ([4]; 48 h, n = 3): 16.00 ± 5.73
- Inhibitory rate (%) ([4]; 48 h, versus PBS group): 125.76%
- Scales quantity in granular layer * 100% (mouse tail epidermis; cream 0.5% (w/w)): 42.40 ± 3.03 %
- Scales quantity in granular layer * 100% (mouse tail epidermis; cream 1% (w/w)): 47.00 ± 5.29 %
- Scales quantity in granular layer * 100% (mouse tail epidermis; cream 2% (w/w)): 50.80 ± 7.50 %
- Scales quantity in granular layer * 100% (mouse tail epidermis; cream 4% (w/w)): 58.80 ± 7.64 %
